We go through ten molecules from BindingDB's records for doi:10.1021/bi000930v (Max Planck Institute, 2001).

Experiment [1] concerns the target T1, E3 ubiquitin-protein ligase Mdm2 (Homo sapiens, UniProt Q00987). As to the kind of experiment: p53-MDM2 Binding ELISA. Particulars: pH 7.4; 23 °C. Here is the method: Interference of the p53-MDM2 binding by test compounds was measured in a 96-well polypropylene round-bottom microtiter plate (Costar, Serocluster). Human MDM2 (amino acids 1-118) was preincubated with 10% DMSO or compounds in assay buffer. After 15-min incubation of the sample, a biotinylated p53-derived peptide was added. As a negative control, buffer only was added into separate wells (blanks). After another 30 min, the incubation mixture was added to 96-well plates coated with streptavidin. After 1 h, the wells were extensively washed. Then, the MDM2 specific antibody was added. After 1 h, the wells were thoroughly washed and the secondary antibody (anti-rabbit-IgG-POD) was added. After another hour, the wells were washed, and the peroxidase subtrate ABTS was added. After 30 min, OD 405/490 nm was determined with a Dynatech MR 7000 ELISA reader.
Background: An ELISA detects its analyte on a solid surface through an enzyme-linked reagent.

The target of experiment [2] is T1, E3 ubiquitin-protein ligase Mdm2. As to the kind of experiment: NMR Titration Experiment. Particulars: pH 7.4; 23 °C. Here is the method: NMR measurements consisted of monitoring changes in chemical shifts and line widths of the backbone amide resonances of uniformly 15N-enriched MDM2 samples in a series of HSQC spectra as a function of a ligand concentration. The complexes of human MDM2 and the chalcones were prepared by mixing the protein and the ligand in the NMR tube. Typically, NMR spectra were recorded 15 min after mixing at room temperature. An initial screening of all compounds used in this study was performed with a 10-fold molar excess of chalcone to human MDM2. […] All KD values obtained by NMR spectroscopy are based on at least six data points.

T1 sequence (Q00987 whole entry, the tested form may be a part): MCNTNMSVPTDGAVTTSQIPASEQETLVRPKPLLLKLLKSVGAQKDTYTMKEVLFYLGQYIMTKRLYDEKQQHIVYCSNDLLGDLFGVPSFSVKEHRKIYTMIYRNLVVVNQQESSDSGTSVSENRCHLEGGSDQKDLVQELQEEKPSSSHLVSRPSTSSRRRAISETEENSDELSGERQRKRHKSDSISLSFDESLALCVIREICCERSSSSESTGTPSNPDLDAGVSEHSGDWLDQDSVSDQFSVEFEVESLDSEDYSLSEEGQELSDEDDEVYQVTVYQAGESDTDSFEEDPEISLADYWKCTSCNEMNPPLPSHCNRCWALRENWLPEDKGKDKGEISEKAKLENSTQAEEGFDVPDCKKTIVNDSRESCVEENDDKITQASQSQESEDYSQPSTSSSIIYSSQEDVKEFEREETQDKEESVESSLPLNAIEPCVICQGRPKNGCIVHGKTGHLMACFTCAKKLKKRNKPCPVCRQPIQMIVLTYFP

The IC50 is the concentration that inhibits the measured activity by half. Take `CCOC(=O)C(C)(C)Oc1ccc(CCNC(=O)/C=C/C(=O)c2ccc(Cl)cc2)cc1` [Chalcone derivative, E]: the IC50 in experiment [1] is over 250 µM.
The Kd is a measure of binding affinity in units of concentration. Higher therefore signals a looser complex. As for `O=C(O)COc1c(Br)cc(/C=C/C(=O)c2ccc3ccccc3c2)cc1Br` [Chalcone derivative, N], the affinity in experiment [2], expressed as Kd, was 270 µM.
As for `O=C(C(=S)Nc1ccccc1)C(C=Nc1ccccc1)c1ccccc1` (centres undefined) [Chalcone derivative, H], in experiment [1], the half-maximal inhibitory concentration (IC50) was over 250 µM.
Still for that read-out and setting: the same measure for `Oc1ccc2ccc3c(c2c1)CN(Cc1ccccc1)CO3` [Chalcone derivative, D]: over 250 µM.
`CC(C)(Oc1ccc(/C=C/C(=O)c2ccc(Cl)cc2)cc1)C(=O)O` [Chalcone derivative, C] showed an equilibrium dissociation constant (Kd) in experiment [2] of 244 µM. Besides, in experiment [1], the IC50 was 250 µM.
On the same counts, the results for `O=C(O)COc1ccc(/C=C/C(=O)c2ccc(Cl)c(Cl)c2)cc1` [Chalcone derivative, B] are 90 µM and 49 µM.
On the same counts, the results for `O=C(O)COc1ccc(/C=C/C(=O)c2ccc(Cl)cc2)cc1` [Chalcone derivative, A] are 220 µM and 206 µM.
Turning to `O=C(CC(=Nc1ccccc1)c1ccccc1)Nc1ccccc1` [Chalcone derivative, F], the IC50 in experiment [1] is over 250 µM.
The same measure, in the same setting: then `CCOc1ccc(NC(=O)CC(=Nc2ccccc2)c2ccccc2)cc1` [Chalcone derivative, G], with over 250 µM.
As for `O=C(O)COc1ccc(C(=O)/C=C/c2ccc(Cl)c(Cl)c2)cc1` [Chalcone derivative, B-1], the dissociation constant (Kd) in experiment [2] amounted to 150 µM. Moreover, in experiment [1], the IC50 was determined as 117 µM.
